Results: patent publication US5739166A, “Substituted terphenyl compounds for the treatment of inflammation” (G.D. Searle & Co., priority 1994, dated 1998)

Test system: hyperalgesic foot withdrawal
Assay: Rat Carrageenan-induced Analgesia Test
Format: in vivo, Male Sprague-Dawley rats
Details: oral, assay performed at 50 mg/kg body weight, 3 hours after carrageenan
Description: Male Sprague-Dawley rats were treated as previously described for the Carrageenan Foot Pad Edema test. Three hours after the injection of the carrageenan, the rats were placed in a special plexiglass container with a transparent floor having a high intensity lamp as a radiant heat source; positionable under the floor. After an initial twenty minute period, thermal stimulation was begun on either the injected foot or on the contralateral uninjected foot. A photoelectric cell turned off the lamp and timer when light was interrupted by paw withdrawal. The time until the rat withdraws its foot was then measured. The withdrawal latency in seconds was determined for the control and drug-treated groups, and percent inhibition of the hyperalgesic foot withdrawal determined.

COc1ccc(-c2cc(F)c(F)cc2-c2ccc(S(N)(=O)=O)cc2)cc1Cl [Example 20, 4-[2-(3-chloro-4-methoxyphenyl)-4,5-difluorophenyl]benzenesulfonamide]
ANALGESIA % Inhibition: 22%
